Measured values taken from the NIST ThermoML archive (doi:10.1016/j.fluid.2007.06.019).
Values joined by “and” are separate entries in the source; they are usually repeats but may differ in a detail not shown here. Identical values can stand only once.

Settings: Liquid, Alternating current cell with electrodes

CCCCCCCC[n+]1ccn(C)c1.F[B-](F)(F)F [1-methyl-3-octylimidazolium tetrafluoroborate]
Settings | electrical conductivity
273.23 K, 101.33 kPa | 0.00961 S/m
273.37 K, 101.33 kPa | 0.00973 S/m and 0.00997 S/m
278.15 K, 101.33 kPa | 0.0144 S/m and 0.0148 S/m
283.15 K, 101.33 kPa | 0.0211 S/m and 0.0218 S/m and 0.0212 S/m
288.15 K, 101.33 kPa | 0.0303 S/m and 0.0305 S/m
288.16 K, 101.33 kPa | 0.0312 S/m
293.15 K, 101.33 kPa | 0.0435 S/m and 0.0423 S/m
293.16 K, 101.33 kPa | 0.0427 S/m
298.15 K, 100 kPa | 0.0587 S/m
298.15 K, 101.33 kPa | 0.0584 S/m [middle of 5 runs]
298.15 K, 24500 kPa | 0.0441 S/m
298.15 K, 49500 kPa | 0.0333 S/m
298.15 K, 73500 kPa | 0.0257 S/m
298.15 K, 98400 kPa | 0.0197 S/m
298.15 K, 122900 kPa | 0.0152 S/m
298.15 K, 147100 kPa | 0.012 S/m
298.15 K, 171600 kPa | 0.00941 S/m
298.15 K, 196100 kPa | 0.00742 S/m
298.16 K, 101.33 kPa | 0.058 S/m
303.15 K, 101.33 kPa | 0.076 S/m and 0.0794 S/m and 0.0775 S/m
308.15 K, 101.33 kPa | 0.0992 S/m and 0.104 S/m and 0.102 S/m
313.15 K, 101.33 kPa | 0.127 S/m and 0.131 S/m and 0.132 S/m
318.15 K, 101.33 kPa | 0.16 S/m and 0.165 S/m and 0.167 S/m
323.11 K, 101.33 kPa | 0.198 S/m and 0.205 S/m
323.13 K, 101.33 kPa | 0.2 S/m
323.15 K, 100 kPa | 0.203 S/m
323.15 K, 24500 kPa | 0.162 S/m
323.15 K, 49300 kPa | 0.13 S/m
323.15 K, 73500 kPa | 0.106 S/m
323.15 K, 98100 kPa | 0.0853 S/m
323.15 K, 122600 kPa | 0.0695 S/m
323.15 K, 147600 kPa | 0.0567 S/m
323.15 K, 171600 kPa | 0.0468 S/m
323.15 K, 196100 kPa | 0.0386 S/m
328.15 K, 101.33 kPa | 0.244 S/m and 0.252 S/m
328.19 K, 101.33 kPa | 0.246 S/m
333.11 K, 101.33 kPa | 0.304 S/m
333.12 K, 101.33 kPa | 0.294 S/m
333.16 K, 101.33 kPa | 0.298 S/m
338.12 K, 101.33 kPa | 0.355 S/m
338.2 K, 101.33 kPa | 0.353 S/m and 0.364 S/m
343.16 K, 101.33 kPa | 0.42 S/m
343.2 K, 101.33 kPa | 0.416 S/m and 0.43 S/m
348.15 K, 100 kPa | 0.486 S/m
348.15 K, 24500 kPa | 0.406 S/m
348.15 K, 49000 kPa | 0.339 S/m
348.15 K, 73500 kPa | 0.287 S/m
348.15 K, 98400 kPa | 0.242 S/m
348.15 K, 122600 kPa | 0.206 S/m
348.15 K, 147100 kPa | 0.175 S/m
348.15 K, 171600 kPa | 0.149 S/m
348.15 K, 196100 kPa | 0.128 S/m
348.16 K, 101.33 kPa | 0.485 S/m
348.17 K, 101.33 kPa | 0.502 S/m
348.24 K, 101.33 kPa | 0.494 S/m
353.15 K, 101.33 kPa | 0.561 S/m and 0.581 S/m
353.21 K, 101.33 kPa | 0.572 S/m

CCCCCCCC[n+]1ccn(C)c1.F[P-](F)(F)(F)(F)F [1-octyl-3-methylimidazolium hexafluorophosphate]
Settings | electrical conductivity
273.2 K, 101.33 kPa | 0.00325 S/m
273.22 K, 101.33 kPa | 0.00331 S/m
278.15 K, 101.33 kPa | 0.0053 S/m and 0.0052 S/m
283.15 K, 101.33 kPa | 0.00823 S/m and 0.00822 S/m and 0.00807 S/m
288.15 K, 101.33 kPa | 0.0121 S/m
288.16 K, 101.33 kPa | 0.0124 S/m
293.15 K, 101.33 kPa | 0.0181 S/m and 0.0182 S/m and 0.0177 S/m
298.15 K, 100 kPa | 0.0263 S/m
298.15 K, 101.33 kPa | 0.0257 S/m [middle of 4 runs]
298.15 K, 19600 kPa | 0.0202 S/m
298.15 K, 39200 kPa | 0.0154 S/m
298.15 K, 49500 kPa | 0.0134 S/m
298.15 K, 59100 kPa | 0.0117 S/m
298.15 K, 78500 kPa | 0.00918 S/m
298.15 K, 98100 kPa | 0.00712 S/m
303.15 K, 101.33 kPa | 0.036 S/m and 0.0353 S/m and 0.0358 S/m
308.15 K, 101.33 kPa | 0.0479 S/m and 0.048 S/m
308.16 K, 101.33 kPa | 0.0493 S/m and 0.0489 S/m
313.15 K, 101.33 kPa | 0.0655 S/m and 0.0653 S/m
313.16 K, 101.33 kPa | 0.0659 S/m and 0.0654 S/m
318.15 K, 101.33 kPa | 0.0863 S/m [middle of 4 runs]
323.11 K, 101.33 kPa | 0.108 S/m
323.13 K, 101.33 kPa | 0.11 S/m
323.15 K, 100 kPa | 0.107 S/m
323.15 K, 101.33 kPa | 0.111 S/m
323.15 K, 24200 kPa | 0.0814 S/m
323.15 K, 49000 kPa | 0.0625 S/m
323.15 K, 73500 kPa | 0.0483 S/m
323.15 K, 98100 kPa | 0.0375 S/m
323.15 K, 122600 kPa | 0.0292 S/m
323.15 K, 147100 kPa | 0.0229 S/m
323.15 K, 171300 kPa | 0.0181 S/m
323.15 K, 196100 kPa | 0.0143 S/m
328.11 K, 101.33 kPa | 0.142 S/m
328.12 K, 101.33 kPa | 0.141 S/m
328.13 K, 101.33 kPa | 0.136 S/m and 0.137 S/m
333.11 K, 101.33 kPa | 0.17 S/m
333.19 K, 101.33 kPa | 0.173 S/m
338.18 K, 101.33 kPa | 0.209 S/m and 0.21 S/m
343.16 K, 101.33 kPa | 0.254 S/m
343.17 K, 101.33 kPa | 0.253 S/m
348.15 K, 100 kPa | 0.29 S/m
348.15 K, 24500 kPa | 0.233 S/m
348.15 K, 49300 kPa | 0.188 S/m
348.15 K, 73500 kPa | 0.152 S/m
348.15 K, 98100 kPa | 0.124 S/m
348.15 K, 122600 kPa | 0.101 S/m
348.15 K, 147100 kPa | 0.083 S/m
348.15 K, 171600 kPa | 0.0681 S/m
348.15 K, 195800 kPa | 0.0562 S/m
348.17 K, 101.33 kPa | 0.304 S/m
348.18 K, 101.33 kPa | 0.303 S/m
353.17 K, 101.33 kPa | 0.358 S/m and 0.36 S/m
